Two compounds from paper PMC9184653, “LDL receptor-related protein 1 (LRP1), a novel target for opening the blood-labyrinth barrier (BLB)” (Signal Transduction and Targeted Therapy, 2022) can be followed below.

pKd: −log10 of the molar value. Where no end group is shown, it is not given here.

In data set [1] the target is T1, LRP1 (Mus musculus, UniProt Q91ZX7).
T1 construct: from tissue; host or cells: cochleae of C57BL/6J mice
The data set is described as follows: immunofluorescence imaging of cochleae after intravenous injection (distribution, colocalization with LRP1). Type of data set: in vivo. As to conditions: i.v. injection. As to the method: (§1) To classify the roles of LRP1 in the transportation of IETP2 to the inner ear, the binding affinity of IETP2 to LRP1 was first determined using biolayer interferometry (BLI, Fig. 2d). […] SV was further imaged from another view. […] The Manders’ colocalization coefficients (MCCs) of LRP1 and IETP2 in IHCs, ECs, SP cells, and SGNs were 0.71515, 0.64284, 0.56482, and 0.70552, respectively.
Four-week-old C57BL/6J mice of either sex were harvested 50 min and 2 h post-injection. Cochleae were fixed in 4% paraformaldehyde at 4 °C for 8 h and decalcified in 4% EDTA for 4 days at room temperature (RT). Parts of the cochleae were dissected into pieces containing the basilar membrane (BM), organ of Corti (OC) and stria vascularis (SV) from the apex to the hook region and then used for whole-mount immunofluorescence. Other parts of the cochleae were dehydrated using a graded sucrose solution (15% and 30%; 3 h for each grade) at RT, embedded in optimum cutting temperature (OCT) compound for 5 h at RT, frozen for 1 h at −20 °C and sectioned with a freezing microtome (Leica CM1900) at an 8 μm thickness.
For whole-mount and cross-section immunofluorescence, tissues were incubated with 0.1% Triton X-100 and blocked with 10% donkey serum for 2 h at RT before the application of the primary antibodies. […]

Data set [2] addresses LRP1 (Homo sapiens, UniProt Q07954). The experiment in a line: biolayer interferometry (BLI) binding of IETP2 to LRP1. As to conditions: kinetic analysis, read-out: dissociation constant (KD) of IETP2 binding to LRP1.
Text: Gly-Cy5.5 served as a negative control. d Kinetic analysis of IETP2 binding to LRP1. […] Scale bars: e, j, o 100 µm, y, z 50 µm, others 10 µm.)
as §1
Background: Biolayer interferometry detects binding as a change in optical thickness at a sensor tip.

The subject of data set [3] is mouse cochleae. The experiment in a line: in vivo and ex vivo fluorescence imaging of cochlear uptake. As to conditions: IETP2-Cy5.5, i.v., BALB/c nude mice. The text has this:
To validate whether the selected IETPs could cross the BLB and to evaluate the inner ear-targeting efficacy, IETPs were covalently conjugated with the fluorescent dye Cy5.5 and intravenously injected into mice. In vivo and ex vivo fluorescence imaging of cochleae was used for evaluation. […] The IETP2 signal was visualized with in vivo fluorescence imaging (Fig. 2c). Compared to that in the brain and muscle, the signal of IETP2 detected in the cochleae was much stronger (Fig. 2c). […] Therefore, IETP2 was selected for the subsequent experiments.
BALB/c nude mice (4 weeks old, either sex) were divided into three groups (5 mice for each group). […] After the indicated times, the animals were anesthetized with isoflurane and subjected to live animal imaging (IVIS Lumina III, Caliper LifeSciences, MA, USA). The excitation/emission filter was set at 625/700 nm, and images were taken with an interval of 20 min post-injection. To validate the uptake efficiency of different IETPs, mice were sacrificed 1 h post-injection, and the cochleae were collected and imaged. […] The time-dependent uptake of IETP2 in mouse cochleae was assessed at a series of time points (1, 1.5, 2, and 2.5 h) with 3 mice at each time point for each group. Collected images were analyzed using Living Image software (IVIS Imaging System, 4.5.5).

Data set [4] has as its system C57BL/6J mice. The experiment in a line: ototoxicity evaluation by auditory brainstem response (ABR) testing. Type of data set: in vivo, mouse. As to conditions: 6 mice, 12 ears, 7- and 14-days post-administration. As to the method: Auditory brainstem response (ABR) testing was conducted in a standard soundproof chamber for animal use. Mice were anesthetized with a mixture of isoflurane (Keyue Life Science Co., Ltd.) and air via a respirator for animal use (Medical Supplies and Services Int., Ltd.) and an aquarium air pump (HAILEA, A00–5505). The final concentration of isoflurane was 2% at a flow rate of 1.5. Circulating heating pads were placed under the mice to maintain body temperature at 37 °C. ABRs were recorded with a Tucker Davis Technologies (TDT) RZ6 instrument, and the sound was delivered by a calibrated loudspeaker (TDT, MF1 2356).
For ABR testing, needle electrodes were inserted beneath the skin. The recording electrode was inserted at the vertex, the reference electrode was inserted at the pinna, and the ground electrode was inserted near the tail. The ABR stimuli were frequency-specific tone pips at frequencies from 1 kHz to 32 kHz with a duration of 5 ms (0.5 ms rise-fall delivered at 21.1/sec), and each response was amplified 10,000-fold with a filter passband of 100 Hz to 3 kHz and averaged over 1024 times. The signal started at 90 dB sound pressure level (SPL) with a step of 10 dB and decreased to 10 dB SPL at frequencies of 4, 8, 16, 24, and 32 kHz for mice. The threshold was defined as the lowest dB SPL with an identifiable and repeatable wave I for mice. […]

The test system of data set [5] is pig cochleae. The experiment in a line: pig cochlear immunofluorescence imaging after intravenous injection. It is filed as in vivo. As to conditions: IETP2 labeled with 5-TAMRA or Cy5.5, earlobe vein injection, 2 h post-injection.
Experimental: To further test the generality of IETP2 in large mammals, IETP2 labeled with 5-TAMRA or Cy5.5 was injected into pigs via earlobe veins. Two hours post-injection, the pigs were sacrificed (Supplementary Figs. S5 and S6, representative images of three independent experiments).
The zoomed-in OC images in the white dotted rectangle in f.
Images from the IETP2-5-TAMRA injection group. […] Images from the 5-TAMRA injection group. […] The setting parameters for the microscope (including the excitation intensity and emission gain) remained consistent throughout the experiments. c. […] Images of pig cochleae injected with free Cy5.5 (2 h after injection). (DAPI: blue; LRP1: green; phalloidin: magenta. Scale bars for the overview of porcine cochlear mid turn are 200 µm; others are 10 µm.)

T1 sequence (Q91ZX7 20-4545): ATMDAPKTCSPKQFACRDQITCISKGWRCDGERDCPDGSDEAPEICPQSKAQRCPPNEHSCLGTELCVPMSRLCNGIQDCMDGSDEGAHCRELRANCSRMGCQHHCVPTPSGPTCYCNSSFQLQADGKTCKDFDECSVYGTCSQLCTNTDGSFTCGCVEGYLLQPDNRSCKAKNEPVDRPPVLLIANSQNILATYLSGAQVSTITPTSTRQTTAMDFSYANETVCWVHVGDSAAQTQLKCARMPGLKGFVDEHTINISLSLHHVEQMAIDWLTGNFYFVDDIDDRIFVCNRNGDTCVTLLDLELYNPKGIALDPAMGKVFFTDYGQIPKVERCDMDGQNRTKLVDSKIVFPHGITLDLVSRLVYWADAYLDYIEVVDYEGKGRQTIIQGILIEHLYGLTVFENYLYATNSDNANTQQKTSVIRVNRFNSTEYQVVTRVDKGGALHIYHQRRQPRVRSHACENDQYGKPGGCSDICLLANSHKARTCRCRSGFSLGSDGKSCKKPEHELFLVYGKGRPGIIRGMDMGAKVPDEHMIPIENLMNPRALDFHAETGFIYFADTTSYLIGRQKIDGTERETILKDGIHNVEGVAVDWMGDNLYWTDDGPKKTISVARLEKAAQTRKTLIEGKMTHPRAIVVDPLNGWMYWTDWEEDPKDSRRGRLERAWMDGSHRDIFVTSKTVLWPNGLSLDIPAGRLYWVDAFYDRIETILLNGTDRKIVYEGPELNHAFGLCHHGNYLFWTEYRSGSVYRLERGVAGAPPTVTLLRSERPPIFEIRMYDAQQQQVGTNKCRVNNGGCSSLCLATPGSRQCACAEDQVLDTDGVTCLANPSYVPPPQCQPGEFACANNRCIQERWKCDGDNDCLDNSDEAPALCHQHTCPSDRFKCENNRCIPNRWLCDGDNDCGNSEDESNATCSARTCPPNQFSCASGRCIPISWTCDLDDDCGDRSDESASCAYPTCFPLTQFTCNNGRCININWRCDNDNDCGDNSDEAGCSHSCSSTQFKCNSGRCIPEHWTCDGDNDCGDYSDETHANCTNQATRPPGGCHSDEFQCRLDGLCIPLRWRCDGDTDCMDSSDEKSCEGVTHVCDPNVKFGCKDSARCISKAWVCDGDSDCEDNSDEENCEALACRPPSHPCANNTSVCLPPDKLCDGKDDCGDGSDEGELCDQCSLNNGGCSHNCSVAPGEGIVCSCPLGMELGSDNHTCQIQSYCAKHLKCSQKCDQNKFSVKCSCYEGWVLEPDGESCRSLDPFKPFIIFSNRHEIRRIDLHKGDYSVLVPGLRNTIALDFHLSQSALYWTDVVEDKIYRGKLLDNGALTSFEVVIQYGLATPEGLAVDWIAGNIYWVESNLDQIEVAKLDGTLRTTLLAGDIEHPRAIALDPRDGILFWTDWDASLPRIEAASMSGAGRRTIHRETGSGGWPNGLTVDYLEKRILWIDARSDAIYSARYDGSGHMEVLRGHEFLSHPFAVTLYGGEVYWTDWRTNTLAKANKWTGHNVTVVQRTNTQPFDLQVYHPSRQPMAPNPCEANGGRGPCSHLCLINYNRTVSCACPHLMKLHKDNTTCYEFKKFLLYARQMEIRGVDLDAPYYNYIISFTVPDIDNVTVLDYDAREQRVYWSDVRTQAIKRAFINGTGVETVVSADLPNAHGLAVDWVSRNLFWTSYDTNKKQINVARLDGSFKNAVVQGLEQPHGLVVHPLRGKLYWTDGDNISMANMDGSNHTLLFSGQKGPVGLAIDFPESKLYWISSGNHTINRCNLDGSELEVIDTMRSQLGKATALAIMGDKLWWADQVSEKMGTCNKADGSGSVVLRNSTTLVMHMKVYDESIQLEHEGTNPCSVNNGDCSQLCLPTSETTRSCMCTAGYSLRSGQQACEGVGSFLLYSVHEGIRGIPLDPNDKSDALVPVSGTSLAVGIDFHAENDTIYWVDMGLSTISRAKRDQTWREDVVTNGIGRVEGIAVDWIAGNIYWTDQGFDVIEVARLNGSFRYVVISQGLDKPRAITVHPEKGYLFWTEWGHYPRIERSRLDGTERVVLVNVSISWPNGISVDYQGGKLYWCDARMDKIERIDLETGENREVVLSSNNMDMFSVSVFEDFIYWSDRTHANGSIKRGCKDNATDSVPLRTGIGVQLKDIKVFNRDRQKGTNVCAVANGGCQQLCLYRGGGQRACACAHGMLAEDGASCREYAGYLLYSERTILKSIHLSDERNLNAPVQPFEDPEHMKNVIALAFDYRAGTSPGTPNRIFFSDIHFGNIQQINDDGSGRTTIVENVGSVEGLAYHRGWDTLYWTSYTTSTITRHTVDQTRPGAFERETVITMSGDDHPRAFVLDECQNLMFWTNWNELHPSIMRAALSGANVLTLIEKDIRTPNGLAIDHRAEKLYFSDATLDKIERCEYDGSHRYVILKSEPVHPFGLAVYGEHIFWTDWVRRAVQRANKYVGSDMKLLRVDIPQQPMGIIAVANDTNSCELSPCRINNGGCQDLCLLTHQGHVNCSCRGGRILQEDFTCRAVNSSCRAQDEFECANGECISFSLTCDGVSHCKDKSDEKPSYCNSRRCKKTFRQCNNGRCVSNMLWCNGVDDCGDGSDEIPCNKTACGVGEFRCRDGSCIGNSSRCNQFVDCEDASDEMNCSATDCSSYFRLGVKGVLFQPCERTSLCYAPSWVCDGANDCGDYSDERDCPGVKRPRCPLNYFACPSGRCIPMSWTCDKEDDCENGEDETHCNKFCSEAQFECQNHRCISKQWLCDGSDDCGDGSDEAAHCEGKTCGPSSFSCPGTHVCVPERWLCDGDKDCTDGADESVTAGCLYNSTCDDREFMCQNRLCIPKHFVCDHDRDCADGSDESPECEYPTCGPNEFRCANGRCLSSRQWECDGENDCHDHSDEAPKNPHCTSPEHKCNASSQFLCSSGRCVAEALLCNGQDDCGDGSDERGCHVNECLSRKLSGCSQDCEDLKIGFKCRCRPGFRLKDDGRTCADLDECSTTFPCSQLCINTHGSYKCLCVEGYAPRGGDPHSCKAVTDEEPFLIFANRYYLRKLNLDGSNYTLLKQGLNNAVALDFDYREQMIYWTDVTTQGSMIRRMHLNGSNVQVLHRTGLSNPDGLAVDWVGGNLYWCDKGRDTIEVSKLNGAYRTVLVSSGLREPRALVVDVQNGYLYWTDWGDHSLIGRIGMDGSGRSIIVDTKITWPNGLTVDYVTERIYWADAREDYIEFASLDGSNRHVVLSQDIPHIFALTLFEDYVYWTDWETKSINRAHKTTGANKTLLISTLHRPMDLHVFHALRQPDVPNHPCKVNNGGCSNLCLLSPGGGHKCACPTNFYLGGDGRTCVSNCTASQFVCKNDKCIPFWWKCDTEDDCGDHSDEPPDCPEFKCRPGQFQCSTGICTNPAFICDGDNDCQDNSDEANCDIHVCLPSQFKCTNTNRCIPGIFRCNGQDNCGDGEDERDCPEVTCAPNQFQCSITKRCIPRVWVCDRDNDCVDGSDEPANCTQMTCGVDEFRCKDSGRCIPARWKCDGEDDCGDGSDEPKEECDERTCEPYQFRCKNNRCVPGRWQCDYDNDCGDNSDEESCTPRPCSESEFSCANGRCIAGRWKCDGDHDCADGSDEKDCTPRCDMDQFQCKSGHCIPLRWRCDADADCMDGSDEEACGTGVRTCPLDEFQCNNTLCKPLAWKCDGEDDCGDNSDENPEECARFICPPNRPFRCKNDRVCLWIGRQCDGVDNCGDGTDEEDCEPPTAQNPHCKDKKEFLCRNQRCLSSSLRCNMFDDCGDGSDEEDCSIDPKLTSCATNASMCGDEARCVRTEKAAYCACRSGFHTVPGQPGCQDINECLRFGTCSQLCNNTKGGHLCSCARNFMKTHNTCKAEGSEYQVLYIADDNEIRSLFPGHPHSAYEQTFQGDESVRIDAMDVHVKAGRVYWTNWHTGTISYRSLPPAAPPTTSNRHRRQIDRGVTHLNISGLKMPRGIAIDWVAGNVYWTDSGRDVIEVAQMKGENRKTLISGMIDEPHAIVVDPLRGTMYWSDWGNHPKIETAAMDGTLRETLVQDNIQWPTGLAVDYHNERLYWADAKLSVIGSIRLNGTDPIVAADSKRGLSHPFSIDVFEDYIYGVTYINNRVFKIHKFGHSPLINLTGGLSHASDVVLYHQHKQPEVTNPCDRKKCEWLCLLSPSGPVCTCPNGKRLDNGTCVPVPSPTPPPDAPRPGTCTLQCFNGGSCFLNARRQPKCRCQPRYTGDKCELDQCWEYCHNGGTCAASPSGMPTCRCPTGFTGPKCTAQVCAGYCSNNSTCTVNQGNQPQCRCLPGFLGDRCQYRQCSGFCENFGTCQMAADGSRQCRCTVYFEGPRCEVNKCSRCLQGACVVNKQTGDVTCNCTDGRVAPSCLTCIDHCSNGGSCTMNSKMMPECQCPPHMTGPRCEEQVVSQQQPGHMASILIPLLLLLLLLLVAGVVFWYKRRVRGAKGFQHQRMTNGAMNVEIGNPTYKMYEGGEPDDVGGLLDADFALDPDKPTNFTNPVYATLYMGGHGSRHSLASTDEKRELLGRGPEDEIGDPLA

Consider `CCN1\C(=C/C=C/C=C/C2=[N+](CCCCCC(=O)O)c3ccc4c(S(=O)(=O)O)cc(S(=O)(=O)O)cc4c3C2(C)C)C(C)(C)c2c1ccc1c(S(=O)(=O)[O-])cc(S(=O)(=O)O)cc21` [Cy5.5], for which the “distribution in cochleae, free dye” value in data set [1] was “limited distribution inside blood vessels in the SV and SGN regions”.

As usually defined, the pKd is −log10 of the Kd, conventionally taken in molar units. Take TFYGGRPKRNNFLRGIRSRGD [IETP2]: in data set [2], the pKd is 6.13. The “signal in the cochleae compared to brain and muscle” value in data set [3] is listed as “much stronger”. In addition, in data set [4], the “ototoxicity (ABR thresholds)” value is given as “no obvious ototoxicity”. In addition, the “transport into the inner ear of pigs” value in data set [5] was “could be transported into the inner ears”.
